Results on 1 compound are retold here after US9944598B2, “Mono- or di-substituted indole derivatives as dengue viral replication inhibitors” (priority 2014, dated 2018).

pEC50: −log10 of the molar value.

A short description of one data set: in vitro. It is filed as cell-based. Particulars: African green monkey, CC50. Here is the method: In parallel, the toxicity of the compounds was assessed on the same plates. Once the read-out for the eGFP signal was done, 10 μL of resazurin, a cell viability stain, was added to all wells of the 384-well plates. The resazurin assay is based on the reduction of the blue resazurin by NADH, produced by the cells, into the highly fluorescent product, resorufin. The formation of pink fluorescent resorufin is directly related to the number of viable cells in the well. The plates were incubated for an additional 5 hours in a fully humidified incubator (37° C., 5% CO2). Next, the plates were measured on an Infinite reader (Tecan) using an excitation wavelength of 530 nm. The half maximal cytotoxic concentration (CC50) was also determined, defined as the concentration required to reduce the resazurin conversion by 50% compared to that of the cell control wells (Table 1). Finally, the selectivity index (SI) is determined for the compounds, which is calculated as followed: SI=CC50/EC50.

The subject of data set [1] is DENV-2 16681 strain labeled with eGFP. The data set is described as follows: DENV-2 antiviral assay (eGFP fluorescence, Vero cells). It is filed as cell-based, Dengue virus. Conditions: Dengue virus, DENV2, Vero, 72 h, DENV-2 16681 eGFP, MOI 0.5, 3 days. Here is the method: The antiviral activity of all the compounds of the invention was tested against DENV-2 16681 strain which was labeled with enhanced green fluorescent protein (eGPF). The culture medium consists of minimal essential medium supplemented with 2% of heat-inactivated fetal calf serum, 0.04% gentamycin (50 mg/mL) and 2 mM of L-glutamine. Vero cells, obtained from ECACC, were suspended in culture medium and 25 μL was added to 384-well plates (2500 cells/well), which already contain the antiviral compounds. Typically, these plates contain a 4-fold serial dilution of 9 dilution steps of the test compound at 200 times the final concentration in 100% DMSO (200 nL). In addition, each compound concentration is tested in quadruplicate (final concentration range: 25 μM-0.00038 μM). Finally, each plate contains wells which are assigned as virus controls (containing cells and virus in the absence of compound), cell controls (containing cells in the absence of virus and compound) and medium controls (containing medium in the absence of cells, virus and compounds). To the wells assigned as medium control, 25 μL of culture medium was added instead of Vero cells. Once the cells were added to the plates, the plates were incubated for 30 minutes at room temperature to allow the cells to distribute evenly within the wells. Next, the plates were incubated in a fully humidified incubator (37° C., 5% CO2) until the next day. Then, DENV-2 strain 16681, labeled with eGFP, was added at a multiplicity of infection (MOI) of 0.5. Therefore, 15 μL of virus suspension was added to all the wells containing test compound and to the wells assigned as virus control. In parallel, 15 μL of culture medium was added to the medium and cell controls. Next, the plates were incubated for 3 days in a fully humidified incubator (37° C., 5% CO2). At the day of the read out, the eGFP fluorescence was measured using an automated fluorescence microscope at 488 nm (blue laser). Using an in-house LIMS system, inhibition dose response curves for each compound were calculated and the half maximal effective concentration (EC50) was determined. Therefore, the percent inhibition (I) for every test concentration is calculated using the following formula: I=100*(ST−SCC)/(SVC−SCC); ST, SCC and SVC are the amount of eGFP signal in the test compound, cell control and virus control wells, respectively. The EC50 represents the concentration of a compound at which the virus replication is inhibited with 50%, as measured by a 50% reduction of the eGFP fluorescent intensity compared to the virus control. The EC50 is calculated using linear interpolation (Table 1).

Usually CC50 stands for the concentration at which the toxic effect on the cells reaches its halfway point. Lower therefore signals greater toxicity to the cells. One may read the pEC50 as the negative decadic logarithm of the EC50, by convention in mol/L. Lower therefore signals a high EC50. In general, melting point refers to the temperature, or range, at which the solid turns liquid. Compound `COc1cc(NC(C(=O)c2c[nH]c3cc(Cl)ccc23)c2ccc(Cl)cc2OC)cc(OCCO)c1` (racemic) [Compound 4, 1-(6-chloro-1H-indol-3-yl)-2-(4-chloro-2-methoxyphenyl)-2-((3-(2-hydroxyethoxy)-5-methoxyphenyl)amino)ethanone] showed a melting point of 154 °C. Besides, the CC50 in “in vitro” was 6.3 µM. The compound also gave a pEC50 in data set [1] of 8.85.
